The source of these data is US5602229A, “Pentapeptide antibiotics” (Gruppo Lepetit S.p.A., priority 1989, dated 1997).

Read-outs that look alike come from different tables or passages of the source.

Data set [1] is described as follows: Acid-base titration (pKa). The data set is classed as physicochemical. How it is done:
Acid-base titrations were carried out under the following conditions: the sample was dissolved in a mixture methyl cellosolve/H2 O 4/1, then an excess of 0.01M HCl in the same solvent mixture was added and the resulting solution was titrated with 0.01N NaOH.

Data set [2] relates to Strept. pyogenes C 203. Nature of the data set: In vitro MIC, two-fold dilution test in microtiter. In kind it is cell-based, Streptococcus pyogenes. The following applies: Difco Todd-Hewitt broth, inoculum about 10^4 CFU/ml, 18-24 h at 37° C. On the procedure:
(§1) Broth cultures are diluted enough so that the final inoculum is about 10^4 colony forming units/ml (CFU/ml).

In data set [3] the test system is Streptococcus pneumoniae UC41. Nature of the data set: In vitro MIC, two-fold dilution test in microtiter. The data set is classed as cell-based. The following applies: Difco Todd-Hewitt broth, inoculum about 10^4 CFU/ml, 18-24 h at 37° C. On the procedure: as §1
For data set [4], the system named is Staphylococcus aureus Tour. Nature of the data set: In vitro MIC, two-fold dilution test in microtiter. In kind it is cell-based. As to conditions: Oxoid ISO-SENSITEST broth, inoculum about 10^4 CFU/ml, 18-24 h at 37° C. On the procedure: as §1
The subject of data set [5] is Streptococcus faecalis ATCC 7080. Nature of the data set: In vitro MIC, two-fold dilution test in microtiter. In kind it is cell-based. As to conditions: Oxoid ISO-SENSITEST broth, inoculum about 10^4 CFU/ml, 18-24 h at 37° C. How it is done: as §1
The test system of data set [6] is Staphylococcus epidermidis ATCC 12228. Nature of the data set: In vitro MIC, two-fold dilution test in microtiter. In kind it is cell-based. The following applies: Oxoid ISO-SENSITEST broth, inoculum about 10^4 CFU/ml, 18-24 h at 37° C. How it is done:
as §1

For data set [7], the system named is Streptococcus mitis 796. Nature of the data set: In vitro MIC, two-fold dilution test in microtiter. The following applies: inoculum about 10^4 CFU/ml, 18-24 h at 37° C. The data set is classed as cell-based. How it is done: as §1
Where [8] appears, read: methyl cellosolve/H2O 4/1, excess 0.01M HCl, titrated with 0.01N NaOH.

In data set [1] (setting [8]), “reductive cleavage product of ristocetin [Example 8]” displayed a pKa2 of 6.2 and a pKa3 of 7.8.

In data set [1] (setting [8]), “reductive cleavage product of antibiotic L 17046 [Example 4]” came in with a pKa1 of 4.6, a pKa2 of 5.8 and a pKa3 of 7.5.

In the case of “reductive cleavage product of antibiotic A/40926 [Example 9]”, in data set [1], the pKa1 amounted to 4.5, the pKa2 is 5.9 and the pKa3 is reported as 7.5. Moreover, in data set [2], the “MIC, STREPT. PYOGENES C 203” value is reported as 2 micrograms/ml. Moreover, the “MIC, STREPT. PNEUMONIAE UC 41” value in data set [3] is 16 micrograms/ml. Besides, the “MIC, STAPH. AUREUS TOUR” value in data set [4] amounted to 16 micrograms/ml.

In data set [1], “reductive cleavage product of antibiotic L 17392 [Example 5]” registered a pKa1 of 4.5 and a pKa2 of 5.5. In addition, the “MIC, STREPT. PYOGENES C 203” value in data set [2] was 8 micrograms/ml. Further, the “MIC, STREPT. PNEUMONIAE UC 41” value in data set [3] amounted to 16 micrograms/ml. Further, the “MIC, STREPT. FAECALIS ATCC 7080” value in data set [5] is 16 micrograms/ml. In addition, in data set [6], the “MIC, STAPH. EPIDERMIDIS ATCC 12228” value was 2 micrograms/ml. Besides, in data set [7], the “MIC, STREPT. MITIS 796” value turned out to be 16 micrograms/ml. In addition, the “MIC, STAPH. AUREUS TOUR” value in data set [4] was 4 micrograms/ml.

For the substance “reductive cleavage product of teicoplanin A2 component 2 [Example 2]”, in data set [1], the pKa1 is given as 4.1, the pKa2 was determined as 5.9 and the pKa3 turned out to be 7.3. Moreover, in data set [2], the “MIC, STREPT. PYOGENES C 203” value is given as 1 micrograms/ml. Also, the “MIC, STREPT. PNEUMONIAE UC 41” value in data set [3] stood at 4 micrograms/ml. Moreover, the “MIC, STREPT. FAECALIS ATCC 7080” value in data set [5] is 4 micrograms/ml. Also, the “MIC, STAPH. EPIDERMIDIS ATCC 12228” value in data set [6] was found to be 2 micrograms/ml. The “MIC, STREPT. MITIS 796” value in data set [7] is on record as 4 micrograms/ml. Further, the “MIC, STAPH. AUREUS TOUR” value in data set [4] was 8 micrograms/ml.

Turning to “reductive cleavage product of antibiotic L 17054 [Example 3]”, in data set [1] (setting [8]), the pKa1 is listed as 4.7.

For the substance “reductive cleavage product of vancomycin [Example 6]”, the “MIC, STREPT. PYOGENES C 203” value in data set [2] is reported as 8 micrograms/ml. For the same substance, the “MIC, STREPT. FAECALIS ATCC 7080” value in data set [5] came to 16 micrograms/ml. Also, the “MIC, STAPH. EPIDERMIDIS ATCC 12228” value in data set [6] came out at 32 micrograms/ml. Also, in data set [4], the “MIC, STAPH. AUREUS TOUR” value worked out at 16 micrograms/ml.
